# Experimental data taken from US11629201B2, “PSMA-binding agents and uses thereof” (ITM Isotope Technologies Munich SE, priority 2017, dated 2023).
# Key:
# [1] = n-Octanol/PBS distribution coefficient (log D); format: physicochemical; settings: n-octanol/PBS; radiolabeled ligand, 50 MBq/nmol, PBS pH 7.4
# Method: The radioligand (0.5 MBq; 10 pmol, 25 μL) was then added to a reagent tube containing 1475 μL of PBS pH 7.4 and 1500 μL of n-octanol. The vials were vortexed vigorously followed by a centrifugation step for phase separation.
# Determination of n-Octanol/PBS Distribution Coefficients (Log D Values). The distribution coefficients (log D values) of the ^64Cu-labeled radioligands (50 MBq/nmol) were determined by a shake-flask method using liquid-liquid extraction followed by phase separation as previously reported. Three experiments were performed with five replicates for each radioligand. Statistical significance of the data (p<0.05) was evaluated using an unpaired t-test (GraphPad Prism software, version 7).
# Determination of n-Octanol/PBS Distribution Coefficients (Log D Values). […] A sample of the radioligands was mixed with phosphate-buffered saline (PBS) and n-octanol followed by vigorous vortexing. […] Three experiments were performed with five replicates for each compound.
# [2] = tested on: PSMA-positive PC-3 PIP cells; test: Cell uptake and internalization in PSMA-positive PC-3 PIP cells; format: cell-based; settings: 2 h and 4 h time-point, PC-3 PIP cells
# [3] = tested on: PC-3 PIP/flu tumor-bearing mice; test: Biodistribution studies in PC-3 PIP/flu tumor-bearing mice; settings: for Tumor-to-blood / Tumor-to-kidney / Tumor-to-liver: PC-3 PIP tumor
# PC-3 PIP tumor = test: Therapy study in PC-3 PIP tumor-bearing mice; format: in vivo
# Text: Mice of Groups B and D received 2 MBq of the radioligand (1 nmol/mouse), whereas mice of Groups C and E received 5 MBq of the radioligand (1 nmol/mouse). The mice were monitored by measuring body weights and the tumor size every other day over 12 weeks. Mice were euthanized when pre-defined endpoint criteria were reached, or when the study was terminated at Day 84. The relative body weight (RBW) was defined as [BWx/BW0], where BWx is the body weight in gram at a given day x and BW0 the body weight in gram at day 0. The tumor dimension was determined by measuring the longest tumor axis (L) and its perpendicular axis (W) with a digital caliper. The tumor volume (V) was calculated according to the equation [V=0.5*(L*W2)]. The relative tumor volume (RTV) was defined as [TVx/TV0], where TVx is the tumor volume in mm3 at a given day x and TV0 the tumor volume in mm3 at Day 0.
# The efficacy of the radionuclide therapy was expressed as the tumor growth delay (TGDx), which was calculated as the time required for the tumor volume to increase x-fold over the initial volume at the Day 0. The tumor growth delay index [TGDIx=TGDx(T)/TGDx(C)] was calculated as the TGDx ratio of treated mice (T) over control mice (C) for a 2-fold (x=2, TGD2) and 5-fold (x=5, TGD5) increase of the initial tumor volume. As a measure to identify undesired side effects, body weights were compared at the day when the first control mouse had to be euthanized. After euthanasia, kidneys, liver and the brain were collected and weighed. The organ ratios (kidney-to-brain and liver-to-brain) were calculated using the organ masses obtained at the day of euthanasia.
# The data was analyzed for significance as indicated in the result part using a one-way ANOVA with Tukey's multiple comparison post-test using GraphPad Prism software (version 7). A value of p<0.05 was considered statistically significant. Survival analysis was performed with Kaplan-Meier curves and a log-rank tests (Mantel Cox).
# [4] = 2 MBq/mouse (Groups B, D), control = 1
structure (smiles),measurement,setting,value
"O=C(O)CC[C@H](NC(=O)N[C@@H](CCCCNC(=O)[C@H](Cc1ccc2ccccc2c1)NC(=O)[C@H]1CC[C@H](CNC(=O)CN2CCN(CC(=O)O)CCN(CC(=O)O)CCN(CC(=O)O)CC2)CC1)C(=O)O)C(=O)O [PSMA-617, reference compound]",logD,[1],-4.4 ± 0.15
O=C(O)CC[C@H](NC(=O)N[C@@H](CCCCNC(=O)[C@H](Cc1ccc2ccccc2c1)NC(=O)[C@H]1CC[C@H](CNC(=O)[C@@H](CCCCNC(=O)CN2CCN(CC(=O)O)CCN(CC(=O)O)CCN(CC(=O)O)CC2)NC(=O)CCCc2ccc(I)cc2)CC1)C(=O)O)C(=O)O [PSMA-ALB-02],logD,[1],-2.8 ± 0.09
O=C(O)CCC(NC(=O)NC(CCCCNC(=O)C(Cc1ccc2ccccc2c1)NC(=O)C1CCC(CNC(=O)C(CCCCNC(=O)CN2CCN(CC(=O)O)CCN(CC(=O)O)CCN(CC(=O)O)CC2)NC(=O)CC(NC(=O)CC(NC(=O)CCCc2ccc(I)cc2)C(=O)O)C(=O)O)CC1)C(=O)O)C(=O)O (stereo not drawn) [PSMA-ALB-05],logD,[1],-3.5 ± 0.08
O=C(O)CCC(NC(=O)NC(CCCCNC(=O)C(Cc1ccc2ccccc2c1)NC(=O)C1CCC(CNC(=O)C(CCCCNC(=O)CN2CCN(CC(=O)O)CCN(CC(=O)O)CCN(CC(=O)O)CC2)NC(=O)CC(NC(=O)CC(NC(=O)CC(NC(=O)CCCc2ccc(I)cc2)C(=O)O)C(=O)O)C(=O)O)CC1)C(=O)O)C(=O)O (stereo not drawn) [PSMA-ALB-07],logD,[1],-3.9 ± 0.25
"Cc1ccc(CCCC(=O)NCCCCC(NC(=O)CN2CCN(CC(=O)O)CCN(CC(=O)O)CCN(CC(=O)O)CC2)C(=O)NCC2CCC(C(=O)NC(Cc3ccc4ccccc4c3)C(=O)NCCCCC(NC(=O)NC(CCC(=O)O)C(=O)O)C(=O)O)CC2)cc1 (stereo not drawn) [^64Cu-PSMA-ALB-06, metal not drawn]",logD,[1],-3.1 ± 0.1
"Cc1ccc(CCCC(=O)NCCCCC(NC(=O)CN2CCN(CC(=O)O)CCN(CC(=O)O)CCN(CC(=O)O)CC2)C(=O)NCC2CCC(C(=O)NC(Cc3ccc4ccccc4c3)C(=O)NCCCCC(NC(=O)NC(CCC(=O)O)C(=O)O)C(=O)O)CC2)cc1 (stereo not drawn) [^177Lu-PSMA-ALB-06, metal not drawn]",internalized fraction / internalization rate versus reference,[2],still comparable to ^177Lu-PSMA-617
same,Blood,[3]; 4 h p.i.,16.2 ± 1.40 % IA/g
same,Bone,[3]; 4 h p.i.,2.23 ± 0.08 % IA/g
same,Intestines,[3]; 4 h p.i.,2.64 ± 0.27 % IA/g
same,Lung,[3]; 4 h p.i.,9.40 ± 1.55 % IA/g
same,Muscle,[3]; 4 h p.i.,1.60 ± 0.38 % IA/g
same,PC-3 PIP Tumor,[3]; 4 h p.i.,76.08 ± 7.67 % IA/g
same,Tumor-to-blood,[3]; 4 h p.i.,4.72 ± 0.51
same,Tumor-to-kidney,[3]; 4 h p.i.,4.02 ± 0.25
same,Tumor-to-liver,[3]; 4 h p.i.,24.29 ± 8.27
same,Blood,[3]; 24 h p.i.,1.49 ± 0.50 % IA/g
same,Bone,[3]; 24 h p.i.,0.41 ± 0.15 % IA/g
same,Heart,[3]; 24 h p.i.,0.68 ± 0.18 % IA/g
same,Intestines,[3]; 24 h p.i.,0.30 ± 0.06 % IA/g
same,Lung,[3]; 24 h p.i.,2.48 ± 2.68 % IA/g
same,Muscle,[3]; 24 h p.i.,0.21 ± 0.04 % IA/g
same,PC-3 PIP Tumor,[3]; 24 h p.i.,108 ± 11.6 % IA/g
same,PC-3 flu Tumor,[3]; 24 h p.i.,0.79 ± 0.23 % IA/g
same,Spleen,[3]; 24 h p.i.,0.76 ± 0.18 % IA/g
same,Stomach,[3]; 24 h p.i.,0.28 ± 0.07 % IA/g
same,Tumor-to-blood,[3]; 24 h p.i.,77.6 ± 21.8
same,Tumor-to-kidney,[3]; 24 h p.i.,10.4 ± 1.16
same,Tumor-to-liver,[3]; 24 h p.i.,222 ± 49.5
same,Blood,[3]; 72 h p.i.,0.62 ± 0.06 % IA/g
same,Bone,[3]; 72 h p.i.,0.18 ± 0.01 % IA/g
same,Heart,[3]; 72 h p.i.,0.26 ± 0.02 % IA/g
same,Intestines,[3]; 72 h p.i.,0.15 ± 0.00 % IA/g
same,Kidneys,[3]; 72 h p.i.,5.58 ± 0.62 % IA/g
same,Liver,[3]; 72 h p.i.,0.28 ± 0.02 % IA/g
same,Lung,[3]; 72 h p.i.,0.67 ± 0.05 % IA/g
same,PC-3 PIP Tumor,[3]; 72 h p.i.,77.9 ± 7.52 % IA/g
same,PC-3 flu Tumor,[3]; 72 h p.i.,0.43 ± 0.03 % IA/g
same,Salivary glands,[3]; 72 h p.i.,0.24 ± 0.03 % IA/g
same,Stomach,[3]; 72 h p.i.,0.13 ± 0.02 % IA/g
same,Tumor-to-blood,[3]; 72 h p.i.,127 ± 24.9
same,Tumor-to-kidney,[3]; 72 h p.i.,14.1 ± 2.02
same,Tumor-to-liver,[3]; 72 h p.i.,277 ± 19.3
same,first mouse of group euthanized,"PC-3 PIP tumor; 2 MBq/mouse (Groups B, D)",28 days
same,median survival,"PC-3 PIP tumor; 2 MBq/mouse (Groups B, D)",36 days
same,TGDI2,PC-3 PIP tumor; [4],1.8 ± 0.5
same,TGDI5,PC-3 PIP tumor; [4],2.3 ± 0.6
same,tumor growth,PC-3 PIP tumor; 5 MBq/mouse (Group E),the tumor growth was effectively inhibited
same,"mice in which tumors disappeared entirely, no regrowth until Day 84","PC-3 PIP tumor; 5 MBq/mouse (Group E), n=6",four
same,mice still alive at the end of the study at Day 84,"PC-3 PIP tumor; 5 MBq/mouse (Group E), n=6",four
same,first mouse of group euthanized,"PC-3 PIP tumor; 5 MBq/mouse (Groups C, E)",58 days
"Cc1ccc(CCCC(=O)NC(CC(=O)NC(CC(=O)NC(CC(=O)NC(CCCCNC(=O)CN2CCN(CC(=O)O)CCN(CC(=O)O)CCN(CC(=O)O)CC2)C(=O)NCC2CCC(C(=O)NC(Cc3ccc4ccccc4c3)C(=O)NCCCCC(NC(=O)NC(CCC(=O)O)C(=O)O)C(=O)O)CC2)C(=O)O)C(=O)O)C(=O)O)cc1 (stereo not drawn) [^177Lu-PSMA-ALB-08, metal not drawn]",internalized fraction / internalization rate versus reference,[2],still comparable to ^177Lu-PSMA-617
same,Blood,[3]; 4 h p.i.,0.41 ± 0.18 % IA/g
same,Bone,[3]; 4 h p.i.,0.16 ± 0.03 % IA/g
same,Heart,[3]; 4 h p.i.,0.19 ± 0.07 % IA/g
same,Intestines,[3]; 4 h p.i.,0.20 ± 0.09 % IA/g
same,Kidneys,[3]; 4 h p.i.,27.2 ± 5.93 % IA/g
same,Liver,[3]; 4 h p.i.,0.27 ± 0.10 % IA/g
same,Lung,[3]; 4 h p.i.,0.48 ± 0.21 % IA/g
same,Muscle,[3]; 4 h p.i.,0.06 ± 0.03 % IA/g
same,PC-3 PIP Tumor,[3]; 4 h p.i.,46.9 ± 16.7 % IA/g
same,PC-3 flu Tumor,[3]; 4 h p.i.,0.25 ± 0.19 % IA/g
same,Salivary glands,[3]; 4 h p.i.,0.19 ± 0.06 % IA/g
same,Spleen,[3]; 4 h p.i.,0.53 ± 0.10 % IA/g
same,Stomach,[3]; 4 h p.i.,0.40 ± 0.25 % IA/g
same,Tumor-to-blood,[3]; 4 h p.i.,116 ± 9.46
same,Tumor-to-kidney,[3]; 4 h p.i.,1.70 ± 0.22
same,Tumor-to-liver,[3]; 4 h p.i.,177 ± 2.72
same,Blood,[3]; 24 h p.i.,0.08 ± 0.01 % IA/g
same,Bone,[3]; 24 h p.i.,0.07 ± 0.02 % IA/g
same,Heart,[3]; 24 h p.i.,0.04 ± 0.01 % IA/g
same,Intestines,[3]; 24 h p.i.,0.03 ± 0.01 % IA/g
same,Kidneys,[3]; 24 h p.i.,13.9 ± 2.32 % IA/g
same,Liver,[3]; 24 h p.i.,0.11 ± 0.02 % IA/g
same,Lung,[3]; 24 h p.i.,0.09 ± 0.02 % IA/g
same,Muscle,[3]; 24 h p.i.,0.02 ± 0.01 % IA/g
same,PC-3 PIP Tumor,[3]; 24 h p.i.,33.0 ± 5.04 % IA/g
same,PC-3 flu Tumor,[3]; 24 h p.i.,0.09 ± 0.05 % IA/g
same,Salivary glands,[3]; 24 h p.i.,0.07 ± 0.05 % IA/g
same,Spleen,[3]; 24 h p.i.,0.10 ± 0.03 % IA/g
same,Stomach,[3]; 24 h p.i.,0.03 ± 0.01 % IA/g
same,Tumor-to-blood,[3]; 24 h p.i.,421 ± 45.7
same,Tumor-to-kidney,[3]; 24 h p.i.,2.39 ± 0.24
same,Tumor-to-liver,[3]; 24 h p.i.,295 ± 40.1
same,Blood,[3]; 72 h p.i.,0.06 ± 0.02 % IA/g
same,Bone,[3]; 72 h p.i.,0.09 ± 0.05 % IA/g
same,Heart,[3]; 72 h p.i.,0.03 ± 0.01 % IA/g
same,Intestines,[3]; 72 h p.i.,0.02 ± 0.01 % IA/g
same,Kidneys,[3]; 72 h p.i.,7.98 ± 0.62 % IA/g
same,Liver,[3]; 72 h p.i.,0.12 ± 0.01 % IA/g
same,Lung,[3]; 72 h p.i.,1.28 ± 2.02 % IA/g
same,Muscle,[3]; 72 h p.i.,0.01 ± 0.01 % IA/g
same,PC-3 PIP Tumor,[3]; 72 h p.i.,24.1 ± 5.37 % IA/g
same,PC-3 flu Tumor,[3]; 72 h p.i.,0.09 ± 0.07 % IA/g
same,Salivary glands,[3]; 72 h p.i.,0.03 ± 0.02 % IA/g
same,Spleen,[3]; 72 h p.i.,0.11 ± 0.05 % IA/g
same,Stomach,[3]; 72 h p.i.,0.02 ± 0.01 % IA/g
same,Tumor-to-blood,[3]; 72 h p.i.,416 ± 89.5
same,Tumor-to-kidney,[3]; 72 h p.i.,3.02 ± 0.68
same,Tumor-to-liver,[3]; 72 h p.i.,207 ± 47.1
